Reference: ChEMBL document CHEMBL1155845, “Novel terphenyls and 3,5-diaryl isoxazole derivatives endowed with growth supporting and antiapoptotic properties” (J Med Chem, 2008)
Calls of active or inactive are those of the source. The calls are words filed in the database; no cut-off is given here.

Tests used:
[1] = test system: HL-60; test: Antiproliferative activity against human HL60 cells after 72 hrs in serum free medium; format: functional
[2] = test system: HL-60; test: Enhancement of human HL60 cells growth at less than 10 uM after 48 hrs by trypan blue assay; format: functional, cell-based
[3] = test system: HL-60; test: Enhancement of human HL60 cells growth at 1 uM after 72 hrs in serum free medium; format: functional, cell-based
[4] = test system: HL-60; test: Enhancement of human HL60 cells growth at 2.5 uM after 72 hrs in serum free medium; format: functional, cell-based
[5] = test system: HL-60; test: Growth inhibition of human HL60 cells at greater than 10 uM after 48 hrs by trypan blue assay; format: functional, cell-based
[6] = test system: HL-60; test: Growth inhibition of human HL60 cells at 5 after 72 hrs in serum free medium; format: functional, cell-based
[7] = test system: HL-60; test: Growth inhibition of human HL60 cells at 2.5 uM after 72 hrs in serum free medium; format: functional, cell-based
[8] = test system: HL-60; test: Antiapoptotic activity in human HL60 cells after 72 hrs in serum free medium relative to control; format: functional
[9] = test system: HL-60; test: Inhibition of daunorubicin-induced apoptosis in human HL60 cells at 2.5 uM after 48 hrs; format: functional, cell-based
[10] = test system: HL-60; test: Antiapoptotic activity in human HL60 cells at 2.5 to 5 uM after 72 hrs in serum free medium relative to control; format: functional
[11] = test system: HL-60; test: Enhancement of human HL60 cells growth at 5 uM after 72 hrs in serum free medium; format: functional, cell-based
[12] = test system: HL-60; test: Enhancement of human HL60 cells growth assessed as promotion of G1 to S transition at 2.5 uM after 24 hrs by flow cytometry; format: functional, cell-based
[13] = test system: HL-60; test: Growth inhibition of human HL60 cells after 48 hrs by trypan blue assay; format: functional, cell-based; details: HL-60, 48 h

In the case of `O=[N+]([O-])c1ccc(-c2cc(-c3ccc(O)c(C45CC6CC(CC(C6)C4)C5)c3)on2)cc1`, the “growth inhibition (GI)” value [1] is reported as 70%, the Activity [2] is reported as “Active” and the Activity [3] is reported as “Active”. For the same compound, the Activity [4] was “Active” and the Activity [5] was “Active”.

`O=C(O)c1ccc(-c2cccc(-c3ccc(O)c(C45CC6CC(CC(C6)C4)C5)c3)c2)cc1` was tested, and the Activity [5] was “Active”.

In the case of `O=C(O)c1ccc(C2=NOC(c3ccc(O)c(C45CC6CC(CC(C6)C4)C5)c3)C2)cc1` (stereo not drawn), the “growth inhibition (GI)” value [1] is reported as 70%, the Activity [2] is reported as “Active” and the Activity [6] is reported as “Active”. For the same compound, the Activity [7] was “Active” and the Activity [5] was “Active”.

With `O=C(O)c1ccc(-c2ccc(-c3ccc(O)c(C45CC6CC(CC(C6)C4)C5)c3)cc2)cc1` the Activity [5] was “Active”.

Compound `COc1cc(-c2ccc(-c3ccc(C(=O)O)cc3)cc2)cc(OC)c1OC` has an Activity [8] of 18%.

For `COc1cc(-c2cccc(-c3ccc(C(=O)O)cc3)c2)cc(OC)c1OC`, the Activity [8] was 17%.

For `O=[N+]([O-])c1ccc(-c2cc(-c3ccc(O)c(C45CC6CC(CC(C6)C4)C5)c3)no2)cc1`, the “growth inhibition (GI)” value [1] was 70%, the Activity [9] was “Active” and the Activity [2] was “Active”. The Activity [10] was 10%, the Activity [11] was “Active” and the Activity [12] was “Active”. For the same compound, the Activity [5] was “Active”.

`O=C(O)c1ccc(-c2cc(-c3ccc(O)c(C45CC6CC(CC(C6)C4)C5)c3)on2)cc1` gave an IC50 [13] of 3 µM.

Work on `O=C(O)c1ccc(-c2ccccc2-c2ccc(O)c(C34CC5CC(CC(C5)C3)C4)c2)cc1` yielded an IC50 [13] of 8 µM.
